Converted amounts (≈) assume the structure as drawn. Where two headings read alike, the source gives them in different places. Bounds are passed on as bounds.

For data set [1], the system named is MRSA NRS 119. Nature of the data set: MIC, Gram-positive panel. The format is cell-based. The note with it: Staphylococcus aureus; MRSA NRS 119; read-out: MIC. As for the experimental part: (§1) Next, the spectrum of antibacterial activity of compounds 144, 148, 149, 151, 155, 158, and 187 was examined against a panel of clinically relevant Gram-positive bacterial pathogens including methicillin-resistant Staphylococcus aureus (MRSA), vancomycin-resistant Staphylococcus aureus (VRSA), vancomycin-resistant Enterococcus faecalis and Enterococcus faecium (VRE), and Streptococcus pneumoniae. Bacterial strains were grown aerobically overnight on tryptone soya agar plates at 37° C. Afterwards, a bacterial solution equivalent to 0.5 McFarland standard was prepared and diluted in cation-adjusted Mueller-Hinton broth (CAMHB) (for staphylococci). Enterococci and Streptococci were diluted in tryptone soya broth (TSB) to achieve a bacterial concentration of about 5×10^5 CFU/mL and seeded in 96-well plates. Compounds and control drugs were added in the first row of 96-well plates and serially diluted with media containing bacteria. Plates were then, incubated aerobically at 37° C. for 18-20 hours (except for S. pneumoniae, which was incubated at 37° C. in presence of 5% CO2 for 18-20 hours).

The subject of data set [2] is VRSA 12. Nature of the data set: MIC, Gram-positive panel. It is filed as cell-based. The note with it: Staphylococcus aureus; VRSA 12; read-out: MIC. As for the experimental part: as §1
Data set [3] has as its system MRSA USA 400. The experiment in a line: Time-kill assay. The format is cell-based, Staphylococcus aureus. The note with it: 5×MIC; for time required for complete eradication of the bacterial count: MRSA USA 400, 24-hour incubation. Here is the method:
In order to the mode of killing of methylene lactone compounds, a time kill assay was performed against MRSA USA 400 as described previously. MRSA USA400 cells in logarithmic growth phase (OD600˜1.00) were diluted to 6.03×10^6 colony-forming units (CFU/mL) and exposed to concentrations equivalent to 5×MIC (in triplicate) of 148, 149, 151, 155, 158 and vancomycin in Tryptic soy broth. Aliquots (100 μL) were collected from each treatment after 0, 2, 4, 6, 8, 12, and 24 hours of incubation at 37° C. and subsequently serially diluted in PBS. Bacteria were then transferred to Tryptic soy agar plates and incubated at 37° C. for 18-20 hours before viable CFU/mL was determined (FIG. 1).
DMSO (solvent for the compounds) served as a negative control and vancomycin served as a control drug. The error bars represent standard deviation values obtained from triplicate samples used for each compound/antibiotic studied.

Data set [4] has as its system total proteases production in MRSA USA300. The experiment in a line: Inhibition of staphylococcal total proteases production, skimmed milk method. It is filed as cell-based, Staphylococcus aureus. The note with it: MRSA USA300, 0.25×MIC, untreated = 100%. As for the experimental part:
The modified skimmed milk method was utilized to investigate the protease inhibitory activities of BHS compounds as described previously. In brief, overnight culture of MRSA300 in TSB, with and without subinhibitory concentrations of compounds (in triplicate), was centrifuged at 14000×g for 10 minutes. Then, a total volume of 500 μL of culture supernatant was incubated with 1 mL skimmed milk (1.25%) at 37° C. for 1 hour. Afterwards, the OD600 was measured to indicate the degree of clearance of skimmed milk. Higher OD values indicate lower proteolytic activity and greater protease inhibitory activity.
FIG. 4. Influence of BHS compounds on the staphylococcal total protease production. OD600 was measured following overnight culturing of MRSA USA300 in TSB in presence and absence of 0.25×MIC of 148, 149, 155, 158 and vancomycin followed by incubation of supernatants with skim milk for 1 hour at 37° C. The Data are presented as percent production (means±standard deviation). DMSO (the solvent for the compounds that served as a negative control). Vancomycin served as the control antibiotic. The values represent an average (means±standard deviation) of four samples analyzed for each compound/antibiotic. Error bars represent standard deviation values. An asterisk (*) denotes statistical significance (P<0.05) between results for compounds 148, 149, 155, 158 and vancomycin analyzed via unpaired t test ([…]).

Data set [5] can be described thus: In vitro cytotoxicity, MTS assay. The format is cell-based, human. The note with it: human, Caco-2 cells; Caco-2, two hours incubation, MTS; read-out: 50% cytotoxic concentration (CC50). As for the experimental part: Compounds 144, 148, 151, 155, 158, and 187 were assayed (at concentrations of 16, 32, and 64 μg/mL) against a human colorectal adenocarcinoma (Caco-2) cell to determine the potential toxic effect to mammalian cells in vitro. Briefly, cells were cultured in Dulbecco's Modified Eagle Medium (DMEM) supplemented with 10% fetal bovine serum (FBS), non-essential amino acids (1×), penicillin-streptomycin at 37° C. in presence of 5% CO2. Control cells received DMSO alone at a concentration equal to that in drug-treated wells. The cells were incubated with the compounds (in triplicate) in a 96-well plate at 37° C. with 5% CO2 for two hours. This was followed by the subsequent addition of the assay reagent MTS 3-(4,5-dimethylthiazol-2-yl)-5-(3-carboxymethoxyphenyl)-2-(4-sulfophenyl)-2H-tetrazolium) (Promega, Madison, Wis., USA) and the plate was incubated for three to four hours. Absorbance readings (at OD490) were recorded using a kinetic microplate reader (Molecular Devices, Sunnyvale, Calif., USA). The quantity of viable cells after treatment with each compound was expressed as a percentage of the viability of DMSO-treated control cells (average of triplicate wells±standard deviation).
FIG. 3. Analyzing the toxicity of 144, 148, 151, 155, 158, and 187 compounds (tested in triplicates at 16, 32 and 64 μg/mL) against human colorectal cells (Caco-2) using the MTS 3-(4,5-dimethylthiazol-2-yl)-5-(3-carboxymethoxyphenyl)-2-(4-sulfophenyl)-2H-tetrazolium) assay. Results are presented as percent viable cells relative to DMSO (negative control) to determine a baseline measurement for the cytotoxic impact of each compound. The absorbance values represent an average of three samples analyzed for each compound. Error bars represent standard deviation values. The data were analyzed via a two-way ANOVA with post-hoc Dunnett's test for multiple comparisons. An asterisk (*) denotes statistical significance (P<0.05) between results for compounds and DMSO.

For data set [6], the system named is Staphylococcus aureus NRS384 (MRSA USA300). Nature of the data set: Initial MIC screening, broth microdilution (CLSI). It is filed as cell-based. To be noted: for potency compared with control antibiotic: MRSA USA300, Table 1 assay; for MIC: Staphylococcus aureus NRS384 (MRSA USA300), broth microdilution, visual reading. A digest of the protocol: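 MRSA USA300 grown 24 h at 37 °C on tryptic soy agar, then adjusted to 5×10^5 CFU/ml in cation-adjusted Mueller-Hinton broth. Compounds serially diluted 64 to 0.5 μg/mL per CLSI broth microdilution; MIC recorded.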
(Dilution methods test growth across graded concentrations, often in twofold steps.)

Where [7] appears, read: Staphylococcus aureus, read-out: MIC.

One may read the MIC as the lowest concentration that inhibits growth of the organism. As for `C=C1C(=O)O[C@H](c2ccc3ccccc3c2)[C@@H]1c1ccc2ccccc2c1` [Compound 158], the MIC in data set [1] was 1 µg/mL (≈ 2.85 µM); in data set [2] it was 2 µg/mL (≈ 5.71 µM); in data set [6], 2 µg/mL (≈ 5.71 µM); in data set [6] (setting [7]), 1 to 2 µg/mL (≈ 2.85 to 5.71 µM). Moreover, in data set [3], the “time required for complete eradication of the bacterial count” value (“time required for complete eradication” below) came out at 2 h. Also, the total protease production in data set [4] came to 56%. The CC50 at 2 h in data set [5] was more than 64 µg/mL. The “potency compared with control antibiotic” value in data set [6] is “potency comparable to vancomycin”.
Take `C=C1C(=O)O[C@H](c2cccc3ccccc23)[C@@H]1c1ccc2ccccc2c1` [Compound 155]: the minimum inhibitory concentration (MIC) was 1 µg/mL (≈ 2.85 µM) in data set [1], 2 µg/mL (≈ 5.71 µM) in data set [2], 2 µg/mL (≈ 5.71 µM) in data set [6] and 1 to 2 µg/mL (≈ 2.85 to 5.71 µM) in data set [6] (setting [7]). Also, the “time required for complete eradication” value in data set [3] amounted to 2 h. In data set [4], the total protease production is 65%. The “potency compared with control antibiotic” value in data set [6] is recorded as “potency comparable to vancomycin”.
For the molecule `C=C(C(=O)OC)C(c1ccc2ccccc2c1)C(O)c1cccc2ccccc12` (centres unmarked) [Compound 148], the MIC in data set [1] was 1 µg/mL (≈ 2.61 µM); in data set [2], 2 µg/mL (≈ 5.23 µM); in data set [6], 2 µg/mL (≈ 5.23 µM); in data set [6] (setting [7]), 1 to 2 µg/mL (≈ 2.61 to 5.23 µM). Further, in data set [3], the “time required for complete eradication” value was determined as 12 h. Also, the “reduction in the bacterial count after 6 hours” value in data set [3] (MRSA USA 400, after 6 hours) was 3 log10. Moreover, the “reduction in the bacterial count after 6 hours (percent)” value in data set [3] (MRSA USA 400, after 6 hours) was determined as 99.9%. In data set [4], this molecule yielded a total protease production of 87%. The CC50 at 2 h in data set [5] was more than 64 µg/mL. The “potency compared with control antibiotic” value in data set [6] is on record as “potency comparable to vancomycin”.
Consider `C=C1C(=O)O[C@H](c2ccccc2)[C@@H]1c1cccc2ccccc12` [Compound 151], for which the MIC is 2 µg/mL (≈ 6.66 µM) in data set [1], 2 µg/mL (≈ 6.66 µM) in data set [2], 1 µg/mL (≈ 3.33 µM) in data set [6] and 1 to 2 µg/mL (≈ 3.33 to 6.66 µM) in data set [6] (setting [7]). The “time required for complete eradication” value in data set [3] amounted to 2 h. Further, the CC50 at 2 h in data set [5] was more than 64 µg/mL. Also, in data set [6], the “potency compared with control antibiotic” value is listed as “potency similar to the oxazolidinone class of antimicrobial drug linezolid”.
